Like-named read-outs stand apart in the source and are kept apart here. One block for each molecule: values may come before it.
Tests used:
[1] = target: T1, N-type calcium channel (α1B + α2 + β1b) (Rattus norvegicus, UniProt Q02294); experiment: Open-channel block of N-type calcium channels, whole cell patch clamp, holding potential -100 mV; format: cell-based; conditions: for inhibition at 10 µM: read-out: Open/Resting Block (determined at 10 μM); for normalized peak height: -100 mV to +20 mV
T1 construct: expressed in transfected cells; host or cells: HEK293 cells stably expressing, or HEK TSA 201 cells transiently transfected with, α1B + α2 + β1b
T1 sequence (Q02294 whole entry): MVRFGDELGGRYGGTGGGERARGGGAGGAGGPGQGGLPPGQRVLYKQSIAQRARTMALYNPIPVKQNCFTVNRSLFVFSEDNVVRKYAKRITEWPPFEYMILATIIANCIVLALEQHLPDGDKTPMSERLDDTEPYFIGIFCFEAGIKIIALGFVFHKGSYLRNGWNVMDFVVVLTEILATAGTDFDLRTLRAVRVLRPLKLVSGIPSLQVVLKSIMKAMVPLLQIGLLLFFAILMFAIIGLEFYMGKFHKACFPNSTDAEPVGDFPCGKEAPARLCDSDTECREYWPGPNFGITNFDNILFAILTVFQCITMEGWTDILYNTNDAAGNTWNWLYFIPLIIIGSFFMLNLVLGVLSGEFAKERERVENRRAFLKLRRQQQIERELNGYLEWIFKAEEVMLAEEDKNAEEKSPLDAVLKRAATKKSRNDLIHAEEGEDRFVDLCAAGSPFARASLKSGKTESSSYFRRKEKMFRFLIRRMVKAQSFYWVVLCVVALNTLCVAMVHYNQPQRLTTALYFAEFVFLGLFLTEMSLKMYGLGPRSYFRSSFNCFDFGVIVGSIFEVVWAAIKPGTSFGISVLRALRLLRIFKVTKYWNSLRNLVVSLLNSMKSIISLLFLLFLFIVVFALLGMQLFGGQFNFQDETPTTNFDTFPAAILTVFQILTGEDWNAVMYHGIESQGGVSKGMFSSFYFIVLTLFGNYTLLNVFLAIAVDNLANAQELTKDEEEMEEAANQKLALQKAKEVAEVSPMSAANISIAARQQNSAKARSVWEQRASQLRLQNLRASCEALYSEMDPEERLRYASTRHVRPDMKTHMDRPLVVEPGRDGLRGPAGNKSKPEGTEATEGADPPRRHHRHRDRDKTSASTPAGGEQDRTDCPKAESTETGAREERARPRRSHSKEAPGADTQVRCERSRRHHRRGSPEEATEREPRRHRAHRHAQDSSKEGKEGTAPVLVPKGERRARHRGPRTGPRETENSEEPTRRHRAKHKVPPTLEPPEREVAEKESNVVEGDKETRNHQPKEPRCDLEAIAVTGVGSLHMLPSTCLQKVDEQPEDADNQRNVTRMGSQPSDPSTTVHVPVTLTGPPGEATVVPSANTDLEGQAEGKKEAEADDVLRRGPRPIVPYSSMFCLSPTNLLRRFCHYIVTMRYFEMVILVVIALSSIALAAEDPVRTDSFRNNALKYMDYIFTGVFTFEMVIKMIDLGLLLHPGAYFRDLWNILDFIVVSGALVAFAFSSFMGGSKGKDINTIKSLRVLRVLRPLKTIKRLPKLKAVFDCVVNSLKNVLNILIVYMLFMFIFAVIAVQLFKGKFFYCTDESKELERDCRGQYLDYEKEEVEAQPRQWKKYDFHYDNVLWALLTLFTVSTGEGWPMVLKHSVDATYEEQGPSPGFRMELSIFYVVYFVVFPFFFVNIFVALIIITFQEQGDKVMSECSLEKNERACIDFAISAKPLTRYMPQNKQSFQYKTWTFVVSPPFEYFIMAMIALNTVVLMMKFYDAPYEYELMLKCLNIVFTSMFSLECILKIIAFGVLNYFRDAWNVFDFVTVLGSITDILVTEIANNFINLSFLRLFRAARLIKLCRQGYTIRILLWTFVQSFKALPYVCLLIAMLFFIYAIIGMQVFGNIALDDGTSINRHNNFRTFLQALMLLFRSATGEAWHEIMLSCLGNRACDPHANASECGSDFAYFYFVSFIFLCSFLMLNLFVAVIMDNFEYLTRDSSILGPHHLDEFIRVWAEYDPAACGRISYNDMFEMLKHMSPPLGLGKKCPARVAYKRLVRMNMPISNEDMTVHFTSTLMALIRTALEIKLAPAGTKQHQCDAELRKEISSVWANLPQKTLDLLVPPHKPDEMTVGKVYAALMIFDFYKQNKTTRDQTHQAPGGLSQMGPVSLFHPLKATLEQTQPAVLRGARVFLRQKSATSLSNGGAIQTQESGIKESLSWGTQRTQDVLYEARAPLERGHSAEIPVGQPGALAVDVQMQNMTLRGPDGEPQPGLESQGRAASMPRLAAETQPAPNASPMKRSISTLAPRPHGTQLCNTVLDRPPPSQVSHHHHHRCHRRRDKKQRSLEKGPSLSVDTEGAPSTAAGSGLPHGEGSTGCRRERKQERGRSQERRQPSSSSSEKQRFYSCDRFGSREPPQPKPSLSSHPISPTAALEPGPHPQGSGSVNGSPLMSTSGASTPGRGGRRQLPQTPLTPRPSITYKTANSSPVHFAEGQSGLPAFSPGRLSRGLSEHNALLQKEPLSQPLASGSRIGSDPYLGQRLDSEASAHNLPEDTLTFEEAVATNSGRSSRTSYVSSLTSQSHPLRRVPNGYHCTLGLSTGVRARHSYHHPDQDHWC
T1 sequence (P54290 25-944 partner limits assumed): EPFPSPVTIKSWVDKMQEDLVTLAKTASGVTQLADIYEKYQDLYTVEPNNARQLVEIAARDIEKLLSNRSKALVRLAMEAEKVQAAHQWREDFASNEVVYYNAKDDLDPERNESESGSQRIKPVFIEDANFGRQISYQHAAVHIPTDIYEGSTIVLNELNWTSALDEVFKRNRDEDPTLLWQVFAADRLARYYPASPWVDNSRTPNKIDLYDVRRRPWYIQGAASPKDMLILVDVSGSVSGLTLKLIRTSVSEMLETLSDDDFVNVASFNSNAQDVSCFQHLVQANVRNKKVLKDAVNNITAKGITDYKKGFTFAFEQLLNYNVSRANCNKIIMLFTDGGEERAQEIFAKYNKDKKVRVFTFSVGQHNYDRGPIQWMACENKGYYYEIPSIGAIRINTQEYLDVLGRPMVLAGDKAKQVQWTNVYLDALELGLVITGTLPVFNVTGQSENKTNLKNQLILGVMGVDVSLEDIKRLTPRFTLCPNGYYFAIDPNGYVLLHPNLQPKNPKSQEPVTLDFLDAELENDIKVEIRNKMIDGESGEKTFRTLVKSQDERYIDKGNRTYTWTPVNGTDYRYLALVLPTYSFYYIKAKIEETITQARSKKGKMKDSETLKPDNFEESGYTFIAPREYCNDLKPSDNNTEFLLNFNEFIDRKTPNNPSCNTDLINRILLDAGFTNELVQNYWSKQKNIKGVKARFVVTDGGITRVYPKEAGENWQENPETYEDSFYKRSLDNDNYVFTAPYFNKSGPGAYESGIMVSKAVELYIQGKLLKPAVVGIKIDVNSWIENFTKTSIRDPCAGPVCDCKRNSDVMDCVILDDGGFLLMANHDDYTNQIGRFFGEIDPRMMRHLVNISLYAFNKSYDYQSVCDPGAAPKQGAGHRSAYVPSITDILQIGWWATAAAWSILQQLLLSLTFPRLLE
T1 sequence (P54290 945-1091 partner limits assumed): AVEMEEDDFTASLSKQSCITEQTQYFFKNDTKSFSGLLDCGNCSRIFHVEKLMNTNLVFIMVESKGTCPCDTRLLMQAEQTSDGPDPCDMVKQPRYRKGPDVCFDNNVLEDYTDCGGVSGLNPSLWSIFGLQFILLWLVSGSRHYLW
T1 sequence (P54283 whole entry partner): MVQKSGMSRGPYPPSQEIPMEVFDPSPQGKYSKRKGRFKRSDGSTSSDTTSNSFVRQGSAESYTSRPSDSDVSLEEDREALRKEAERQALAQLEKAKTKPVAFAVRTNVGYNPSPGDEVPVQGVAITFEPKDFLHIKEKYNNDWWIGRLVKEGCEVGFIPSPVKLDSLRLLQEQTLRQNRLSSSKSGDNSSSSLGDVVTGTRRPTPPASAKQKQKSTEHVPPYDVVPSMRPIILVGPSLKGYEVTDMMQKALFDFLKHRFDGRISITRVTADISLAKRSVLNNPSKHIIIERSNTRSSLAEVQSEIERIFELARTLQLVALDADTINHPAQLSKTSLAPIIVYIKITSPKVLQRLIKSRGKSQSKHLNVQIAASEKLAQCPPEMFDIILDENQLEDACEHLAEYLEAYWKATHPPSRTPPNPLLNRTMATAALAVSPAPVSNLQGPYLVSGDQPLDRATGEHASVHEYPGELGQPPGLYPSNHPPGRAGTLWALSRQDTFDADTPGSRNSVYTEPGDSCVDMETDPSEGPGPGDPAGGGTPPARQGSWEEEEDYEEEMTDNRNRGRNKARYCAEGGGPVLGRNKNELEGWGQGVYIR
Description: (§1) There are two distinguishable types of calcium channel inhibition. […] A second type of block is referred to herein as "inactivation inhibition." When maintained at less negative resting potentials, such as the physiologically important potential of -70 mV, a certain percentage of the receptor channels may undergo conformational change, rendering them incapable of being activated--i.e., opened--by the abrupt depolarization. Thus, the peak current due to calcium ion flow will be diminished not because the open channel is blocked, but because some of the channels are unavailable for opening (inactivated). "Inactivation" type inhibitors increase the percentage of receptors that are inactivated.
(§2) As described above, a more definitive assay can be used to distinguish inhibitors of calcium flow which operate as open channel blockers, as opposed to those that operate by promoting inactivation of the channel. The methods to distinguish these types of inhibition are more particularly described in the examples below. In general, open-channel blockers are assessed by measuring the level of peak current when deploarization is imposed on a background resting potential of about -100 mV in the presence and absence of the candidate compound. Successful open-channel blockers will reduce the peak current observed and accelerate the decay of this current. Compounds that are inactivated channel blockers are determined by their ability to shift the voltage dependence of inactivation towards more negative potentials. This is also reflected in their ability to reduce peak currents at more depolarized holding potentials(e.g., -70 mV).
(§3) Human embryonic kidney TSA 201 cells were grown in standard DMEM medium, supplemented with 10% fetal bovine serum and 0.4 mg/ml neomycin. The cells were grown to 80% confluency, split with trypsin EDTA and plated on glass coverslips at 10% confluency 12 hours prior to transfection. Immediately prior to transfection, the medium was replaced and the cells were transiently transfected with cDNAs encoding calcium channel α1B, β1b and α2 subunits (at a 1:1:1 molar ratio) using a standard calcium phosphate protocol. After 12 hours, the medium was replaced with fresh DMEM and the cells were allowed to recover for 12 hours. Subsequently the cells were incubated at 28° C. in 5% CO2 for 1-2 days prior to recording. Human embryonic kidney cells stably expressing N-type α1B +α2 +β1b were maintained and plated for electrophysiological recordings as described by Zamponi, G. W. et al., Nature (1997) 385:442-446.
Immediately prior to recording, individual cover slips were transferred to a 3 cm culture dish containing an external recording solution. The external recording solution was 20 mM BaCl2, 1 mM MgCl2, 10 mM HEPES, 40 mM TEACl, 10 mM glucose, 65 mM CsCl (pH 7.2) or 5 mM BaCl2, 1 mM MgCl2, 10 mM HEPES, 40 mM TEACl, 10 mM glucose, 87.5 mM CsCl (pH 7.2). […] The internal pipette solution is 105 mM CsCl, 25 mM TEACl, 1 mM CaCl2, 11 mM EGTA, 10 mM HEPES (pH 7.2). Whole cell patch clamp experiments were performed using an Axopatch 200B amplifier (Axon Instruments, Burlingame, Calif.) linked to an IBM compatible personal computer equipped with pCLAMP 6.0 software. Currents were typically elicited from a holding potential of -100 mV to various test potentials. The compounds to be tested were prepared as stock solutions in ethanol and diluted into the recording solution at the appropriate final concentrations, and perfused directly onto the cells using a gravity driven microperfusion system. At the applicable concentrations, ethanol by itself had no effect on calcium channel activity. Data were filtered at 1 kHz and recorded directly on the hard drive of a personal computer. The data were analyzed using ClampFit (Axon Instruments). Curve fitting was carried out in Sigmaplot 4.0 (Jandel Scientific). Steady state inactivation curves were fitted with a Boltzman equation, […]

[2] = target: T1, N-type calcium channel (α1B + α2 + β1b); experiment: Inactivation of N-type calcium channels (steady state inactivation, shift in V0.5), whole cell patch clamp; format: cell-based
Description: as §1, §2, §3
Immediately prior to recording, individual cover slips were transferred to a 3 cm culture dish containing an external recording solution. The external recording solution was 20 mM BaCl2, 1 mM MgCl2, 10 mM HEPES, 40 mM TEACl, 10 mM glucose, 65 mM CsCl (pH 7.2) or 5 mM BaCl2, 1 mM MgCl2, 10 mM HEPES, 40 mM TEACl, 10 mM glucose, 87.5 mM CsCl (pH 7.2). […] The internal pipette solution is 105 mM CsCl, 25 mM TEACl, 1 mM CaCl2, 11 mM EGTA, 10 mM HEPES (pH 7.2). Whole cell patch clamp experiments were performed using an Axopatch 200B amplifier (Axon Instruments, Burlingame, Calif.) linked to an IBM compatible personal computer equipped with pCLAMP 6.0 software. Currents were typically elicited from a holding potential of -100 mV to various test potentials. The compounds to be tested were prepared as stock solutions in ethanol and diluted into the recording solution at the appropriate final concentrations, and perfused directly onto the cells using a gravity driven microperfusion system. At the applicable concentrations, ethanol by itself had no effect on calcium channel activity. Data were filtered at 1 kHz and recorded directly on the hard drive of a personal computer. The data were analyzed using ClampFit (Axon Instruments). Curve fitting was carried out in Sigmaplot 4.0 (Jandel Scientific). Steady state inactivation curves were fitted with a Boltzman equation,
Ipeak(normalized) =1/(1+exp((V-Vh)Z/25.6)) […]

[3] = system: L-type calcium channel (α1C); experiment: Open-channel block of L-type channels, resting potential -100 mV; format: cell-based; conditions: 25 μM farnesol
Method: as §3
(§4) For some experiments, cells were prepared wherein the α1B unit was replaced by α1A (P/Q type) α1C (type L) or α1E (undefined). α1B represents N-type.
(§5) Immediately prior to recording, individual cover slips were transferred to a 3 cm culture dish containing an external recording solution. […] Data were filtered at 1 kHz and recorded directly on the hard drive of a personal computer. The data were analyzed using ClampFit (Axon Instruments). […]

[4] = system: P/Q type calcium channel (α1A); experiment: Open-channel block of P/Q-type channels, resting potential -100 mV; format: cell-based; conditions: 25 μM farnesol
Method: as §3, §4, §5

α1E calcium channel [5] = experiment: Open-channel block of α1E channels, resting potential -100 mV; format: cell-based; conditions: 25 μM farnesol
Method: as §3, §4, §5

[6] = system: L-type calcium channel (α1C); experiment: Inactivation effect on L-type channels, resting potential -70 mV; format: cell-based; conditions: 250 nM farnesol
Method: as §3, §4, §5

[7] = system: P/Q type calcium channel (α1A); experiment: Inactivation effect on P/Q-type channels, resting potential -70 mV; format: cell-based; conditions: 250 nM farnesol
Method: as §3, §4, §5

α1E calcium channel [8] = experiment: Inactivation effect on α1E channels, resting potential -70 mV; format: cell-based; conditions: 250 nM farnesol
Method: as §3, §4, §5

L-type receptors = conditions: micromolar range; cited from earlier work
[9] = corrected for control inactivation rate, linear fit

SMILES: CCCCCCCCCCN [decylamine]
- inhibition at 10 µM [1]: > 80%
- Inactivated Block (shift in V0.5) [2]: ~ 10 mV

SMILES: CCCCCCCCCCCC [dodecane]
- nonspecific open-channel blocking activity (summary in words) [1]: relatively lacking
- inhibition at 10 µM [1]: 10 to 20%
- Inactivated Block (shift in V0.5) [2]: ~ 10 mV
- inactivation-type inhibition specific to the N-type receptor (summary in words) [2]: able to promote substantial inactivation-type inhibition

SMILES: CCCCCCCCCCCCN [dodecylamine]
- inhibition at 10 µM [1]: 90 to 100%
- Inactivated Block (shift in V0.5) [2]: ~ 10 mV

SMILES: CC(C)=CCCC(C)=CCCC(C)=CCO [farnesol]
- normalized peak height ([1]; 5 μM farnesol): diminished
- time to decay of current to the resting level ([1]; 5 μM or 25 μM farnesol): accelerated time to decay to the resting level
- position of peak amplitude with respect to depolarization voltage (current/voltage relationship) ([1]; 10 μM farnesol): no dependence
- normalized peak height ([1]; 25 μM farnesol): further dramatically diminished
- open channel blocking effect on current amplitudes ([1]; 25 μM farnesol, resting potential -100 mV): diminished peak heights
- peak currents upon removal of farnesol (reversibility) ([1]; after 5 μM and 25 μM farnesol): regenerated
- intercept of inverse time constant for current decay versus farnesol concentration [1, 9]: 7.6
- slope of inverse time constant for current decay versus farnesol concentration [1, 9]: 4.8
- inhibition at 10 µM [1]: 60%
- Inactivated Block (shift in V0.5) [2]: 10-25 mV
- V0.5 ([2]; 100 nM farnesol): -70 mV
- time course of development of current amplitude diminution ([2]; 100 nM farnesol, resting potential -70 mV): slower than that obtained at a resting potential of -100 mV
- recovery from block ([2]; 100 nM farnesol, resting potential -70 mV, compared with open-channel blockage): much slower
- peak current at -70 mV resting potential normalized to -100 mV ([2]; 250 nM farnesol): substantially diminished
- reversibility of effect ([2]; 250 nM farnesol, holding -70 mV to test +10 mV): does not appear to be completely reversible
- Z slope factor (Boltzman fit) ([2]; 25 μM farnesol): 3.8
- shift in V0.5 ([2]; 25 μM farnesol): about 20 mV
- V0.5 (resting potential that diminishes peak currents to 1/2) ([2]; 25 μM farnesol present, mean values): -70 mV
- Vh (Boltzman fit of steady state inactivation) ([2]; 25 μM farnesol, test potential +20 mV): -68.7 mV
- Vh (Boltzman fit of steady state inactivation) ([2]; Wash, after 25 μM farnesol): -56.5 mV
- Z slope factor (Boltzman fit) ([2]; Wash, after 25 μM farnesol): 4.0
- activity at 25 µM ([2]; read-out: peak current value (normalized to -100 mV resting potential)): 50%
- activity at 25 µM ([2]; read-out: peak value as % of base value (normalized to -100 mV resting potential)): 80%
- channel type preference of open channel block [3]: preferentially inhibited
- open channel blocking effect on current amplitudes [3]: diminished peak heights
- open channel blocking effect on current amplitudes [4]: diminished peak heights
- open channel blocking effect on current amplitudes (α1E calcium channel [5]): diminished peak heights
- peak current at -70 mV resting potential normalized to -100 mV [6]: Only the N-type channels show substantially diminished values
- peak current at -70 mV resting potential normalized to -100 mV [7]: Only the N-type channels show substantially diminished values
- peak current at -70 mV resting potential normalized to -100 mV (α1E calcium channel [8]): Only the N-type channels show substantially diminished values
- calcium-channel blocking, open channel blockage, channel preference (L-type receptors): preference for inhibition of L-type receptors

Now from value to molecule, other results behind:

- nonspecific open-channel blocking activity (summary in words) [1]: relatively lacking
- Open/Resting Block (determined at 10 μM) [1]: < 10%
- Inactivated Block (shift in V0.5) [2]: ~ 10 mV
SMILES: CC(C)CCCC(C)CCCC(C)CCCC(C)C (stereo not drawn)
- inactivation-type inhibition specific to the N-type receptor (summary in words) [2]: able to promote substantial inactivation-type inhibition

- inhibition at 10 µM [1]: 90 to 100%
- Inactivated Block (shift in V0.5) [2]: ~ 20 mV
SMILES: CC(=O)OCC=C(C)CCC=C(C)CCC=C(C)C [farnesyl acetate]

- nonspecific open-channel blocking activity (summary in words) [1]: relatively lacking
- inhibition at 10 µM [1]: 20 to 30%
- Inactivated Block (shift in V0.5) [2]: ~ 20 mV
SMILES: CC(C)=CCCC(C)=CCCC(C)=CCBr [farnesyl bromide]
- inactivation-type inhibition specific to the N-type receptor (summary in words) [2]: able to promote substantial inactivation-type inhibition

- Open/Resting Block (determined at 10 μM) [1]: Not active
SMILES: CC(C)=CCCC(C)=CCCC(C)=CCOP(=O)(O)OP(=O)(O)O [farnesyl pyrophosphate]

- nonspecific open-channel blocking activity (summary in words) [1]: relatively lacking
- Open/Resting Block (determined at 10 μM) [1]: Not active
- Inactivated Block (shift in V0.5) [2]: ~ 10 mV
SMILES: COC(=O)C=C(C)CCC=C(C)CCC1OC1(C)C (stereo not drawn) [juvenile hormone III]
- inactivation-type inhibition specific to the N-type receptor (summary in words) [2]: able to promote substantial inactivation-type inhibition

Reference: patent publication US6267945A, “Farnesol-related calcium channel blockers” (NeuroMed Technologies, Inc., priority 1998, dated 2001)
